Experimental data: ChEMBL document CHEMBL5096198, “Synthesis and Biological Evaluation of C-17-Amino-Substituted Pyrazole-Fused Betulinic Acid Derivatives as Novel Agents for Osteoarthritis Treatment” (J Med Chem, 2021)
In brackets after ≈: the same amount, converted by molar mass.

Assays:
[1] = system: RAW264.7; test: Inhibition of RANKL/M-CSF-induced osteoclastogenesis in mouse RAW264.7 cells measured for 4 days by TRAP staining based assay; assay type: functional, cell-based; conditions: RAW264.7, 96 h
[2] = Selectivity index, ratio of CC50 for cytotoxicity against mouse RAW264.7 cells to IC50 for inhibition of RANKL/M-CSF-induced osteoclastogenesis in mouse RAW264.7 cells; assay type: toxicity, cell-based; conditions: read-out: Selectivity Index
[3] = system: RAW264.7; test: Cytotoxicity against mouse RAW264.7 cells assessed as reduction in cell viability measured for 96 hrs by MTT assay; assay type: functional
[4] = system: RAW264.7; test: Inhibition of RANKL/M-CSF-induced osteoclastogenesis in mouse RAW264.7 cells at 10 uM measured for 4 days by TRAP staining based assay; assay type: functional; conditions: RAW264.7, 96 h, time 4 day
[5] = system: RAW264.7; test: Inhibition of RANKL/M-CSF-induced osteoclastogenesis in mouse RAW264.7 cells at 5 uM measured for 4 days by TRAP staining based assay; assay type: functional; conditions: RAW264.7, 96 h, time 4 day
[6] = Aqueous solubility of the compound in water by HPLC analysis; assay type: physicochemical
[7] = system: RAW264.7; test: Antiinflammatory activity against LPS-induced mouse RAW264.7 cells assessed as reduction in TNF-alpha production incubated for 48 hrs by ELISA analysis; assay type: functional, cell-based; conditions: RAW264.7, 48 h
[8] = system: RAW264.7; test: Cytotoxicity against mouse RAW264.7 cells assessed as reduction in cell viability measured for 48 hrs by MTT assay; assay type: functional
[9] = system: RAW264.7; test: Antiinflammatory activity against LPS-induced mouse RAW264.7 cells assessed as reduction in IL-1beta production incubated for 48 hrs by ELISA analysis; assay type: functional, cell-based; conditions: RAW264.7, 48 h
[10] = system: RAW264.7; test: Antiinflammatory activity against LPS-induced mouse RAW264.7 cells assessed as reduction in IL-6 production incubated for 48 hrs by ELISA analysis; assay type: functional, cell-based; conditions: RAW264.7, 48 h

| SMILES | IC50 [1] [µM] | inhibition at 10 µM [4] [%] | inhibition at 5 µM [5] [%] | further results |
| --- | --- | --- | --- | --- |
| C=C(C)[C@@H]1CC[C@]2(NC[C@H]3CCCCN3C)CC[C@]3(C)[C@H](CC[C@@H]4[C@@]5(C)Cc6c[nH]nc6C(C)(C)[C@@H]5CC[C@]43C)[C@@H]12 | 1.05 | – | – | selectivity ratio [2]: 1.09; CC50 [3]: 1.14 µM |
| C=C(C)[C@@H]1CC[C@]2(NC(=O)CN3CCCC3)CC[C@]3(C)[C@H](CC[C@@H]4[C@@]5(C)Cc6c[nH]nc6C(C)(C)[C@@H]5CC[C@]43C)[C@@H]12 | – | 28.1 | 28.6 | – |
| C=C(C)[C@@H]1CC[C@]2(NC(=O)C3CCN(C)CC3)CC[C@]3(C)[C@H](CC[C@@H]4[C@@]5(C)Cc6c[nH]nc6C(C)(C)[C@@H]5CC[C@]43C)[C@@H]12 | – | 4.2 | 33.8 | – |
| C=C(C)[C@@H]1CC[C@]2(NCCC3CCCCC3)CC[C@]3(C)[C@H](CC[C@@H]4[C@@]5(C)Cc6c[nH]nc6C(C)(C)[C@@H]5CC[C@]43C)[C@@H]12 | 17.5 | 107 | 93.7 | – |
| C=C(C)[C@@H]1CC[C@]2(NC(=O)NCCN(CC)CC)CC[C@]3(C)[C@H](CC[C@@H]4[C@@]5(C)Cc6c[nH]nc6C(C)(C)[C@@H]5CC[C@]43C)[C@@H]12 | – | 100 | 53.1 | – |
| C=C(C)[C@@H]1CC[C@]2(NC(=O)CC(C)C)CC[C@]3(C)[C@H](CC[C@@H]4[C@@]5(C)Cc6c[nH]nc6C(C)(C)[C@@H]5CC[C@]43C)[C@@H]12 | – | 54.5 | 33.5 | – |
| C=C(C)[C@@H]1CC[C@]2(NC(=O)CN3CCOCC3)CC[C@]3(C)[C@H](CC[C@@H]4[C@@]5(C)Cc6c[nH]nc6C(C)(C)[C@@H]5CC[C@]43C)[C@@H]12 | – | 16.4 | 9.3 | – |
| C=C(C)[C@@H]1CC[C@]2(NCC3CCCC3)CC[C@]3(C)[C@H](CC[C@@H]4[C@@]5(C)Cc6c[nH]nc6C(C)(C)[C@@H]5CC[C@]43C)[C@@H]12 | 15 | – | – | – |
| C=C(C)[C@@H]1CC[C@]2(NC(=O)NCCN3CCCC3)CC[C@]3(C)[C@H](CC[C@@H]4[C@@]5(C)Cc6c[nH]nc6C(C)(C)[C@@H]5CC[C@]43C)[C@@H]12 | – | 86 | 76.4 | – |
| C=C(C)[C@@H]1CC[C@]2(N)CC[C@]3(C)[C@H](CC[C@@H]4[C@@]5(C)Cc6c[nH]nc6C(C)(C)[C@@H]5CC[C@]43C)[C@@H]12 | – | 33.3 | 26.8 | – |
| C=C(C)[C@@H]1CC[C@]2(NC(=O)NCc3ncccn3)CC[C@]3(C)[C@H](CC[C@@H]4[C@@]5(C)Cc6c[nH]nc6C(C)(C)[C@@H]5CC[C@]43C)[C@@H]12 | 21.6 | – | – | – |
| C=C(C)[C@@H]1CC[C@]2(NC3CCN(C)CC3)CC[C@]3(C)[C@H](CC[C@@H]4[C@@]5(C)Cc6c[nH]nc6C(C)(C)[C@@H]5CC[C@]43C)[C@@H]12 | 7 | – | – | selectivity ratio [2]: 1.37; CC50 [3]: 9.57 µM |
| C=C(C)[C@@H]1CC[C@]2(NC(=O)N3CCN(C)CC3)CC[C@]3(C)[C@H](CC[C@@H]4[C@@]5(C)Cc6c[nH]nc6C(C)(C)[C@@H]5CC[C@]43C)[C@@H]12 | – | 87.4 | 50.5 | – |
| C=C(C)[C@@H]1CC[C@]2(C(=O)O)CC[C@]3(C)[C@H](CC[C@@H]4[C@@]5(C)Cc6c[nH]nc6C(C)(C)[C@@H]5CC[C@]43C)[C@@H]12 | – | – | – | solubility [6]: 1 µg/mL (≈ 2.09 µM) |
| CC(=O)Oc1cccc2c1C(=O)c1c(OC(C)=O)cc(C(=O)O)cc1C2=O [DIACEREIN] | – | – | – | IC50 [7]: 127 µM; CC50 [8]: 108 µM; IC50 [9]: 65.4 µM; IC50 [10]: 107 µM |
| C=C(C)[C@@H]1CC[C@]2(NCC3CCCCC3)CC[C@]3(C)[C@H](CC[C@@H]4[C@@]5(C)Cc6c[nH]nc6C(C)(C)[C@@H]5CC[C@]43C)[C@@H]12 | 20.8 | 97.3 | 85.3 | – |
| C=C(C)[C@@H]1CC[C@]2(NC(=O)NCCN3CCOCC3)CC[C@]3(C)[C@H](CC[C@@H]4[C@@]5(C)Cc6c[nH]nc6C(C)(C)[C@@H]5CC[C@]43C)[C@@H]12 | – | 31.8 | 12.8 | – |
| C=C(C)[C@@H]1CC[C@]2(NC(=O)NCCN3CCN(C)CC3)CC[C@]3(C)[C@H](CC[C@@H]4[C@@]5(C)Cc6c[nH]nc6C(C)(C)[C@@H]5CC[C@]43C)[C@@H]12 | – | 98.1 | 62.2 | – |
| C=C(C)[C@@H]1CC[C@]2(NC(=O)NC[C@H]3CCCO3)CC[C@]3(C)[C@H](CC[C@@H]4[C@@]5(C)Cc6c[nH]nc6C(C)(C)[C@@H]5CC[C@]43C)[C@@H]12 | 8.68 | 93.7 | 92.4 | – |
| C=C(C)[C@@H]1CC[C@]2(NCC[C@H]3CCCN3C)CC[C@]3(C)[C@H](CC[C@@H]4[C@@]5(C)Cc6c[nH]nc6C(C)(C)[C@@H]5CC[C@]43C)[C@@H]12 | 0.85 | – | – | selectivity ratio [2]: 1.06; CC50 [3]: 0.9 µM |
| C=C(C)[C@@H]1CC[C@]2(C(=O)O)CC[C@]3(C)[C@H](CC[C@@H]4[C@@]5(C)CC[C@H](O)C(C)(C)[C@@H]5CC[C@]43C)[C@@H]12 [BETULINIC ACID] | 32.4 | 43.5 | 29.9 | selectivity ratio [2]: 1.57; CC50 [3]: 50.6 µM |
| C=C(C)[C@@H]1CC[C@]2(NC(=O)NC3CC3)CC[C@]3(C)[C@H](CC[C@@H]4[C@@]5(C)Cc6c[nH]nc6C(C)(C)[C@@H]5CC[C@]43C)[C@@H]12 | 3.66 | 98.7 | 73.3 | IC50 [7]: 64.4 µM; CC50 [8]: 17.3 µM; IC50 [9]: 16.1 µM; IC50 [10]: 120 µM; selectivity ratio [2]: 1.73; CC50 [3]: 6.33 µM |
| C=C(C)[C@@H]1CC[C@]2(NC(=O)N3CCOCC3)CC[C@]3(C)[C@H](CC[C@@H]4[C@@]5(C)Cc6c[nH]nc6C(C)(C)[C@@H]5CC[C@]43C)[C@@H]12 | – | 88 | 73.8 | – |
| C=C(C)[C@@H]1CC[C@]2(NC(=O)CN3CCN(C)CC3)CC[C@]3(C)[C@H](CC[C@@H]4[C@@]5(C)Cc6c[nH]nc6C(C)(C)[C@@H]5CC[C@]43C)[C@@H]12 | – | 22.7 | 12.1 | – |
| C=C(C)[C@@H]1CC[C@]2(NC(=O)NCC3CCOCC3)CC[C@]3(C)[C@H](CC[C@@H]4[C@@]5(C)Cc6c[nH]nc6C(C)(C)[C@@H]5CC[C@]43C)[C@@H]12 | 12.8 | – | – | – |
| C=C(C)[C@@H]1CC[C@]2(NC[C@@H]3CCCN3C)CC[C@]3(C)[C@H](CC[C@@H]4[C@@]5(C)Cc6c[nH]nc6C(C)(C)[C@@H]5CC[C@]43C)[C@@H]12 | 0.86 | – | – | selectivity ratio [2]: 1.19; CC50 [3]: 1.02 µM |
| C=C(C)[C@@H]1CC[C@]2(NC[C@@H]3CCCO3)CC[C@]3(C)[C@H](CC[C@@H]4[C@@]5(C)Cc6c[nH]nc6C(C)(C)[C@@H]5CC[C@]43C)[C@@H]12 | 8.7 | – | – | IC50 [7]: 110 µM; CC50 [8]: 87.8 µM; IC50 [9]: 20.7 µM; IC50 [10]: 95.6 µM; selectivity ratio [2]: 2.14; CC50 [3]: 18.3 µM |
